Experimental data reported in patent publication US9493466B2, “Treatment of cancer with TOR kinase inhibitors” (Signal Pharmaceuticals, LLC, priority 2011, dated 2016).
Like-named read-outs stand apart in the source and are kept apart here.

Columns and labels:
[1] = system: Anbl 6; test: Cell proliferation and viability assay for MM lines; assay type: cell-based; conditions: Homo sapiens, 120 h, Anbl 6, 5 days, 7AAD FACS
Procedure: Cell Proliferation and Viability Assay for MM Lines. Prior to use, cells were washed and maintained in medium for 5 days. Cells were seeded out at a density of 0.3×10^6 cells/mL in a 12-well plate and treated with Compound 1 or Compound 2 for 5 days. 7AAD detection fluorescence-activated cell sorting (FACS) flow cytometry was used in the analysis.

[2] = system: JEKO-1; test: Growth inhibition assay for NHL lines; assay type: cell-based; conditions: JEKO-1, NHL MCL, 96 hours, n ≧ 3
Procedure: (§1) Growth Inhibition Assay for HCC and NHL Lines. The seeding density for each cell line was optimized to ensure assay linearity in 384-well plates.
(§2) Compound 1 was dissolved in dimethyl sulfoxide (DMSO) to prepare a 10 mM stock solution. A serial titration was performed to produce a working concentration range of […] to 10 mM. Aliquots to produce final concentrations of 1.5 nM to 10 μM were spotted via an acoustic dispenser (EDC ATS-100) into an empty 384-well plate. Compound 1 was spotted in a 10-point serial dilution fashion (3-fold dilution) in duplicate within the plate. The DMSO concentration was kept constant for a final assay concentration of 0.1% DMSO. Plates were replicated for use with different cell lines and testing periods. After compound plate replication, all plates were sealed (Agilent ThermoLoc) and stored at −20° C. for up to 1 month. […] When ready for testing, plates were removed from the freezer, thawed, and unsealed just prior to the addition of the test cells. Prior to testing, cells were grown and expanded in culture flasks to provide sufficient amounts of starting material. Cells were then diluted to the appropriate densities and added directly to the compound-spotted 384-well plates. Cells were allowed to grow for 96 hours at 37° C./5% CO2. At the time when compound was added (t0), initial cell number was assessed via a viability assay (Cell Titer-Glo) by quantifying the level of luminescence generated by ATP present in viable cells. After 96 hours, cell viability of compound-treated cells was assessed via Cell Titer-Glo and luminescence measurement. Cell lines were assayed for growth inhibition by Compound 1 in at least 3 independent tests. A control cell line (the lung tumor cell line, A549) was included in each of the assays. The compound response against this control cell line was monitored closely to enable comparison of the data generated through the assay period. All data were normalized and presented as a percentage of the DMSO-treated cells. Results were then expressed as a GI50 value. The GI50 value corrects for the cell count at time zero. In addition, the IC50 value of Compound 1 for each cell line was calculated.

[3] = system: SC-1; test: Growth inhibition assay for NHL lines; assay type: cell-based; conditions: SC-1, NHL FL, 96 hours, n ≧ 3
Procedure: as §1, §2

[4] = system: Mino; test: Growth inhibition assay for NHL lines; assay type: cell-based; conditions: NHL MCL, 96 hours, n ≧ 3
Procedure: as §1, §2

[5] = system: DB; test: Growth inhibition assay for NHL lines; assay type: cell-based; conditions: NHL DLBCL, 96 hours, n ≧ 3
Procedure: as §1, §2

[6] = system: OCI-LY-3; test: Growth inhibition assay for NHL lines; assay type: cell-based; conditions: OCI-LY-3, NHL DLBCL, 96 hours, n ≧ 3
Procedure: as §1, §2

[7] = system: KASUMI-1; test: Growth inhibition assay for NHL lines; assay type: cell-based; conditions: KASUMI-1, Leukemia M-AML, 96 hours, n ≧ 3
Procedure: as §1, §2

[8] = system: Granta-519; test: Growth inhibition assay for NHL lines; assay type: cell-based; conditions: Granta-519, NHL MCL, 96 hours, n ≧ 3
Procedure: as §1, §2

[9] = system: DOHH-2; test: Growth inhibition assay for NHL lines; assay type: cell-based; conditions: DOHH-2, NHL FL, 96 hours, n ≧ 3
Procedure: as §1, §2

[10] = system: U-2940; test: Growth inhibition assay for NHL lines; assay type: cell-based; conditions: U-2940, NHL DLBCL, 96 hours, n ≧ 3
Procedure: as §1, §2

[11] = system: SU-DHL-1; test: Growth inhibition assay for NHL lines; assay type: cell-based; conditions: SU-DHL-1, ALCL T-cell, 96 hours, n ≧ 3
Procedure: as §1, §2

[12] = system: MOLM-13; test: Growth inhibition assay for NHL lines; assay type: cell-based; conditions: MOLM-13, Leukemia M-AML, 96 hours, n ≧ 3
Procedure: as §1, §2

[13] = system: Toledo; test: Growth inhibition assay for NHL lines; assay type: cell-based; conditions: NHL DLBCL, 96 hours, n ≧ 3
Procedure: as §1, §2

[14] = system: THP-1; test: Growth inhibition assay for NHL lines; assay type: cell-based; conditions: THP-1, Leukemia M-AML, 96 hours, n ≧ 3
Procedure: as §1, §2

[15] = system: Farage; test: Growth inhibition assay for NHL lines; assay type: cell-based; conditions: NHL DLBCL, 96 hours, n ≧ 3
Procedure: as §1, §2

[16] = system: WSU-DLCL2; test: Growth inhibition assay for NHL lines; assay type: cell-based; conditions: WSU-DLCL2, NHL DLBCL, 96 hours, n ≧ 3
Procedure: as §1, §2

[17] = system: KARPAS-1106P; test: Growth inhibition assay for NHL lines; assay type: cell-based; conditions: NHL DLBCL, 96 hours, n ≧ 3
Procedure: as §1, §2

[18] = system: G144-Luc cells; test: G144 cancer stem cell derived intracranial glioblastoma model; assay type: in vivo, Nude mice; conditions: 10 mg/kg and 20 mg/kg QD oral, up to 6 weeks; FIG. 15
Procedure: G144 Cancer Stem Cell Derived Intracranial Glioblastoma Model (Compound 1). An intracranial glioblastoma study was conducted with G144 glioblastoma cells transfected with luciferase (G144-Luc). Nude mice were inoculated intracranially with G144-Luc cells into the brain. Following inoculation of animals, the tumors were allowed to grow for 5 weeks. At the end of 5 weeks following tumor cell inoculation, the mice were imaged using Xenogen imaging system. The mice having tumors with an average flux ranging between 3.71×10^6 and 3.87×10^7 photons/sec were pooled together and randomized into various treatment groups. Compound 1 was formulated in 0.5% CMC and 0.25% Tween 80 in water (as a suspension). The animals were orally administered vehicle (CMC-Tween) or Compound 1 once daily (QD) for up to 6 weeks. Doses of 10 mg/kg and 20 mg/kg Compound 1 were used. The positive control Temozolomide (TMZ) (10 mg/kg, QD) was administered via intra peritoneal (IP) route. Temozolomide was formulated in 5% N-methylpyrrolidone, 45% PEG400 and 50% saline. The animals were monitored for tumor growth by imaging for bioluminescence once a week using Xenogen imaging system. Statistical analysis was performed using a one-way analysis of variance (ANOVA) followed by Dunnett's post-hoc comparison with the vehicle-treated control groups.

Question: Which IC50 ([1]; read-out: IC50, Proliferation) does the source give for `CCN1C(=O)CNc2ncc(-c3ccc(-c4nc[nH]n4)nc3C)nc21` [Compound 2, 1-ethyl-7-(2-methyl-6-(1H-1,2,4-triazol-3-yl)pyridin-3-yl)-3,4-dihydropyrazino[2,3-b]pyrazin-2(1H)-one] here?
Answer: The IC50 was 370 nM.

Question: What about the IC50 ([1]; read-out: IC50, Viability) of the same compound?
Answer: The IC50 was 780 nM.

Question: What does the source list for `CO[C@H]1CC[C@H](N2C(=O)CNc3ncc(-c4ccc(C(C)(C)O)nc4)nc32)CC1` [Compound 1, 7-(6-(2-hydroxypropan-2-yl)pyridin-3-yl)-1-((1r,4r)-4-methoxycyclohexyl)-3,4-dihydropyrazino-[2,3-b]pyrazin-2(1H)-one]?
Answer: GI50 [2]: 70 ± 40 nM; IC50 [2]: 100 ± 50 nM; GI50 [3]: 180 ± 10 nM; IC50 [3]: 200 ± 10 nM; GI50 [4]: 370 ± 130 nM; IC50 [4]: 480 ± 100 nM; GI50 [5]: 150 ± 100 nM; IC50 [5]: 170 ± 90 nM; GI50 [6]: 210 ± 60 nM; IC50 [6]: 290 ± 70 nM; GI50 [7]: 40 ± 20 nM; IC50 [7]: 120 ± 30 nM; GI50 [8]: 380 ± 80 nM; IC50 [8]: 960 ± 100 nM; GI50 [9]: 130 ± 20 nM; IC50 [9]: 160 ± 30 nM; GI50 [10]: 110 ± 70 nM; IC50 [10]: 180 ± 100 nM; GI50 [11]: 320 ± 20 nM; IC50 [11]: 390 ± 30 nM; GI50 [12]: 110 ± 20 nM; IC50 [12]: 140 ± 20 nM; GI50 [13]: 70 ± 20 nM; IC50 [13]: 440 ± 20 nM; GI50 [14]: 230 ± 110 nM; IC50 [14]: 570 ± 160 nM; GI50 [15]: 270 ± 30 nM; IC50 [15]: 280 ± 40 nM; GI50 [16]: 90 ± 20 nM; IC50 [16]: 90 ± 20 nM; GI50 [17]: 70 ± 30 nM; IC50 [17]: 70 ± 30 nM; intracranial tumor growth [18]: significantly inhibited
